Reference: patent US20100197627A1, “PANCREATIC CANCER TREATMENT” (priority 2003, published 2010)

How the values were obtained:
[1] = test system: MIA-PaCa-2-RFP pancreatic cancer; experiment: Efficacy of oral CS-682 in surgical orthotopic implantation (SOI) mouse model of MIA-PaCa-2-RFP pancreatic cancer (Example 1); type: in vivo, nude mice (NCr-nu); conditions: for median survival: control 17 days; for mice with evident intra-abdominal fluid (ascites) on examination: 100% of controls within 16 days
Method: The model employed pancreatic tumors derived from the MIA-PaCa-2 pancreatic cancer cell line.
The MIA-PaCa-2 pancreatic cancer cell line was obtained from the American Type Culture Collection (Rockville, Md.), maintained in DMEM media supplemented with 10% heat-inactivated fetal bovine serum and 1% penicillin and streptomycin (Gibco-BRL, Life Technologies, Inc., Grand Island, N.Y.) and cultured at 37° C. in a 5% CO2 incubator.
The pDsRed-2 vector (Clontech Laboratories Inc., Palo Alto, Calif.) was used to engineer MIA-PaCa-2 clones stably expressing RFP. This vector expresses RFP and the neomycin resistance gene on the same bicistronic message. pDsRed-2 was produced in PT67 packaging cells. RFP transduction was initiated by incubating 20% confluent MIA-PaCa-2 cells with retroviral supernatants of the packaging cells and DMEM for 24 hours. Fresh medium was replenished at this time and cells were allowed to grow in the absence of retrovirus for 12 hours. This procedure was repeated until high levels of RFP expression, as determined using fluorescence microscopy, were achieved. Cells were then harvested by trypsin/EDTA and subcultured into selective medium that contained 200 μg/ml G418. The level of G418 was increased to 2000 μg/ml stepwise. Clones expressing high levels of RFP were isolated with cloning cylinders as needed, and were amplified and transferred using conventional culture methods. High RFP-expression clones were isolated in the absence of G418 for 10 passages to select for stable expression of RFP in vivo.
Male nude mice (NCr-nu) between 4-6 weeks of age were maintained in a barrier facility on HEPA-filtered racks. The animals were fed with autoclaved laboratory rodent diet (Teckland LM-485; Western Research Products, Orange, Calif.). Animal experiments were performed in accordance with the Guidelines for the Care and Use of Laboratory Animals (NIH Publication Number 85-23) under assurance number A3873-01.
Red-fluorescent human pancreatic cancer xenografts were established in nude mice by surgical orthotopic implantation (SOI). Briefly, MIA-PaCa-2-RFP tumors in the exponential growth phase, grown subcutaneously in nude mice, were resected aseptically. Necrotic tissues were cut away, and the remaining healthy tumor tissues were cut with scissors and minced into 1 mm^3 pieces in RPMI 1640 medium. Mice were then anesthetized and their abdomens were sterilized with alcohol. An incision was then created through the left upper abdominal pararectal line and peritoneum. The pancreas was carefully exposed and two tumor pieces were transplanted onto the middle of the gland using a single 8-0 surgical suture (Davis-Geck, Inc., Manati, Puerto-Rico). The pancreas was then returned into the peritoneal cavity, and the abdominal wall and the skin were closed in two layers using 6-0 surgical sutures. All procedures were performed with a 7× microscope (Olympus) or standard surgical loupes.
(§1) CS-682 (1-(2-C-cyano-2-deoxy-β-D-arabino-pentofuranosyl)-N^4-palmitoylcytosine, Sankyo Pharmaceuticals, Tokyo) was administered by oral gavage. Prior to the first treatment, mice were randomized into eight groups of 10 mice each for treatment purposes.
(§2) Groups 2, 3 and 4 received 40, 60 and 80 mg/kg/dose CS-682, respectively, each scheduled treatment day.
(§3) […] received 20, 30, 40 and 50 mg/kg/dose CS-682 twice each treatment day, respectively.
(§4) Dosing was initiated five days after surgical orthotopic implantation, and was performed five days each week until death.
External, in vivo whole body imaging, for at least once a week, mice were weighed and underwent external, in vivo imaging. This was performed in a fluorescent light box illuminated by fiberoptic lighting at 470 nm (Lightools Research, Encinitas, Calif.). Emitted fluorescence was collected through a long-pass filter GG475 (Chroma Technology, Battleboro, Vt.) on a Hamamatsu C5810 3-chip cooled color CCD camera (Hamamatsu Photonics Systems, Bridgewater, N.J.). […]

[2] = Body weight loss and toxicity of oral CS-682 in tumor-bearing nude mice (Example 1); type: in vivo; conditions: doses higher than 60 mg/kg per day, oral gavage
Method: as §1, §2, §3, §4
External, in vivo whole body imaging, for at least once a week, mice were weighed and underwent external, in vivo imaging. This was performed in a fluorescent light box illuminated by fiberoptic lighting at 470 nm (Lightools Research, Encinitas, Calif.). Emitted fluorescence was collected through a long-pass filter GG475 (Chroma Technology, Battleboro, Vt.) on a Hamamatsu C5810 3-chip cooled color CCD camera (Hamamatsu Photonics Systems, Bridgewater, N.J.). […] Images were processed for contrast and brightness and analyzed with the use of Image Pro Plus 3.1 software (Media Cybernetics, Silver Spring, Md.). Real-time determination of tumor burden was performed by quantifying fluorescent surface area, as described previously (Bouvet, M., et al., Cancer Res. (2002) 62:1534-1540).

[3] = test system: MIA-PaCa-2-RFP pancreatic cancer; experiment: Primary and adjuvant (after surgical resection) CS-682 in orthotopic MIA-PaCa-2-RFP metastatic pancreatic cancer mouse model (Example 2); type: in vivo, nude mice
Description: The efficacy of oral CS-682 in the adjuvant treatment of metastatic pancreatic cancer was studied. […] The study discussed below used a highly aggressive clone of the human pancreatic cancer cell line MIA-PaCa-2 pancreatic cancer cell line that was engineered, as discussed above, to selectively express high levels of the Discosoma red fluorescent protein. This brightly fluorescent model facilitated the noninvasive quantification of tumor burden throughout the course of treatment.
The MIA-PaCa-2 pancreatic cancer cell line and the animals used in the study were prepared as discussed in Example 1, with the following exceptions. Following orthotopic implantation of MIA-PaCa-2-RFP tumors, each mouse in a treatment group requiring surgical resection of the primary pancreatic tumor was anesthetized and prepared for surgery. The peritoneum was subsequently reopened through the original incision and an examination of adjacent structures was performed to ensure that macroscopic disease was localized to the pancreas. All grossly visible tumor was removed using sharp dissection. Hemostasis was achieved using 6-0 sutures. The abdomen was then closed in two layers.
(§5) Seven days after SOI, mice were randomized into eight groups of 10 mice each, depending upon whether they were to be treated by surgical resection, chemotherapy or both. Mice in groups 1-4 were not treated surgically. […] Mice in groups 2-4 were treated with primary CS-682 at doses of 40, 50 Or 60 mg/kg each treatment day, respectively, according to the treatment schedules outlined below.
(§6) Mice in groups 5-8 underwent surgical resection of their primary tumors 7 days after orthotopic implantation by a single blinded surgeon. Mice in group 5 received no additional chemotherapy; mice in groups 6-8 received adjuvant CS-682 at doses of 40, 50 or 60 mg/kg each treatment day, respectively.
(§7) CS-682 was administered by oral gavage. Treatment with primary or adjuvant CS-682 was initiated 9 days after orthotopic tumor implantation (2 days after surgical resection when applicable) and was to be administered five times each treatment week for a total of 5 weeks or until death. […] In these groups, CS-682 was administered 9 times in weeks 1 and 2 after SOI and then 10 times in weeks 4 and 5, with a treatment hiatus during week 3.
(§8) Twice/week, mice were weighed and underwent external in vivo imaging. This was performed in a fluorescent light box illuminated by fiberoptic lighting at 470 nm (Lightools Research, Encinitas Calif.). […] Emitted fluorescence was collected through a long-pass filter GG475 (Chroma Technology, Battleboro, Vt.) on a Hamamatsu C5810 3-chip cooled color charge-coupled device camera (Hamamatsu Photonics Systems, Bridgewater, N.J.). High-resolution images of 1024×724 pixels were captured directly on an IBM PC or continuously through video output on a high-resolution Sony VCR model SLV-R1000 (Sony Corp., Tokyo, Japan). Images were processed for contrast and brightness and analyzed with the use of Image Pro Plus 3.1 software (Media Cybernetics, Silver Spring, Md.). Real-time determination of tumor burden was performed by quantifying fluorescent surface area.
Mice were sacrificed and explored when they appeared premorbid. After euthanasia, each mouse underwent laparotomy and sternotomy. Excitation of RFP in the light box, described above, facilitated identification of primary and metastatic disease by fluorescence visualization. After performing full-body open images, the solid organs were removed, and their surfaces were thoroughly examined for any evidence of metastases. Fluorescence microscopy was accomplished using a Leica fluorescence stereo microscope model LZ12 (Leica Microsystems, Inc., Bannockburn, Ill.) equipped with a mercury 50-W lamp power supply. Selective excitation of RFP was produced through a […]. Emitted fluorescence was collected by the Hamamatsu camera system described above. […]

[4] = Analysis of toxicity (body weight, general appearance) of CS-682 in Example 2 mice; type: in vivo; conditions: for body weight: oral gavage
Method: as §5, §6, §7, §8
The body weight and general appearance of each mouse were monitored and recorded twice weekly as evidence of systemic toxicity. […] Wasting of body fat, most pronounced in the interscapular area of the back, was a common late finding that occurred in conjunction with disseminated disease.

[5] = test system: subcutaneously-implanted solid tumor xenografts; conditions: several subcutaneously-implanted solid tumor xenografts; cited from earlier work
[6] = test system: tumor cell lines of the stomach, lung, colon and breast; conditions: oral CS-682; cited from earlier work

## CCCCCCCCCCCCCCCC(=O)Nc1ccn([C@@H]2O[C@H](CO)[C@@H](O)[C@@H]2C#N)c(=O)n1 [CS-682, 1-(2-C-cyano-2-deoxy-β-D-arabino-pentofuranosyl)-N^4-palmitoylcytosine]
[1]; 20 mg/kg twice daily oral, p=0.003
  median survival: 27 days
[1]; 20 mg/kg twice daily, 40 mg/kg daily and 60 mg/kg daily, p<0.05 at each time point
  tumor growth (mean area of external RFP autofluorescence): inhibit pancreatic cancer growth
[1]; 30 mg/kg twice daily oral
  median survival: 19 days
[1]; 40 mg/kg and 60 mg/kg daily, control within first two weeks
  time until widespread tumor metastasis visible by whole-body RFP imaging: not visible until the third and fourth week post-implantation
[1]; 40 mg/kg daily
  development of metastases at autopsy (diaphragm, portal nodes, liver, intestinal nodes, kidney): significantly inhibited the development of metastases
  mice with evident intra-abdominal fluid (ascites) on examination: 50%
[1]; 40 mg/kg daily oral, p=0.0008
  median survival: 35 days
[1]; 40 mg/kg daily, day 16 after implantation
  mice with locally confined disease: 90%
[1]; 40 mg/kg daily, control 5.163 g, p=0.16
  primary tumor average weight at autopsy: 3.935 g
[1]; 40 mg/kg twice daily oral
  median survival: 19 days
[1]; 50 mg/kg twice daily oral
  median survival: 18 days
[1]; 60 mg/kg daily (p=0.0004), 20 mg/kg twice daily (p=0.003)
  effect on primary tumor growth (weight at autopsy): significant effect on primary tumor growth
[1]; 60 mg/kg daily oral, p=0.002
  median survival: 36 days
[1]; 60 mg/kg daily
  mice with evident intra-abdominal fluid (ascites) on examination: 10%
[1]; 80 mg/kg daily oral
  median survival: 19 days
[2]
  toxicity-related death: toxicity-related death was observed in a significant number of mice
[3]; adjuvant 50 mg/kg after surgical resection
  mice that lived at least 60 days: 30%
[3]; adjuvant 50 mg/kg after surgical resection, day 23
  animals with at most local disease confined to one abdominal quadrant: 70%
[3]; adjuvant 50 mg/kg after surgical resection, untreated 26 days, resection alone 28 days
  median survival: 48 days
[3]; adjuvant 50 mg/kg, the 30% of mice with long-term survival
  time after completion of chemotherapy until distant metastasis seen: 10 days
[3]; adjuvant CS-682 after surgical resection
  animals showing signs of fluid retention (ascites) at the time of their death: 20%
[3]; adjuvant CS-682 after surgical resection, all doses tested (40, 50, 60 mg/kg)
  survival versus treatment controls: significant increase in survival over treatment controls
[3]; primary CS-682 without resection, 40, 50 and 60 mg/kg
  survival versus untreated: significantly enhanced the survival
[4]; 40 mg/kg each treatment day
  body weight: not associated with a significant loss in body weight
[4]; 50 mg/kg each treatment day, chronic
  body weight: did not lead to a significant loss of body weight
[4]; 60 mg/kg, by day 20, after first nine doses
  loss in body weight: 15%
[4]; 60 mg/kg, modified schedule with hiatus in week 3, day 41
  animals lost to toxicity: 1 animal
[5]
  antitumor activity: potent antitumor activity
[6]
  cytotoxic activity compared with parent compound CNDAC: more potent cytotoxic activity than its parent compound
